Measurements taken from PMC4024383 (European journal of medicinal chemistry, 2014).

Legend:
Src kinase = assay: Src radioactive kinase assay; conditions: ratio of IC50s
[1] = system: P. falciparum gametocyte exflagellation; assay: P. falciparum exflagellation assay; format: cell-based; conditions: Plasmodium falciparum, read-out: P. falciparum exflagellation inhibition EC50
[2] = Human cell growth inhibition assay; format: cell-based; conditions: CRL-8155 cells (lymphocytic)
[3] = Human cell growth inhibition assay; format: cell-based; conditions: HepG2 cells (liver)
Abl tyrosine kinase = biological target: T1, Abl tyrosine kinase (Homo sapiens, UniProt P00519); assay: Abl radioactive kinase assay; format: biochemical
T1 sequence (P00519 229-512 limits assumed): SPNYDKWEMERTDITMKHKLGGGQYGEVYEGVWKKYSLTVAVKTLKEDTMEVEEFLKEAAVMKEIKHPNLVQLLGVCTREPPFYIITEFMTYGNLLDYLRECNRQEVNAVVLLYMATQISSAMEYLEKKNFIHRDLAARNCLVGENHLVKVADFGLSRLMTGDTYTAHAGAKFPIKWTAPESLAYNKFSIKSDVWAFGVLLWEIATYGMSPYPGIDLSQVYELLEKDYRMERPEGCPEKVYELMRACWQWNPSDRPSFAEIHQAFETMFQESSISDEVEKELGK

recombinant PfCDPK4 = recombinant PfCDPK4 (Plasmodium falciparum, UniProt Q8IBS5); assay: PfCDPK4 luminescence-based; format: biochemical; conditions: for fold more potent against PfCDPK4 than PfCDPK1: ratio of IC50s
PfCDPK1 = PfCDPK1 enzymatic assay; format: biochemical, Plasmodium falciparum; conditions: ratio of IC50s

Chain of recombinant PfCDPK4 (Q8IBS5 whole entry): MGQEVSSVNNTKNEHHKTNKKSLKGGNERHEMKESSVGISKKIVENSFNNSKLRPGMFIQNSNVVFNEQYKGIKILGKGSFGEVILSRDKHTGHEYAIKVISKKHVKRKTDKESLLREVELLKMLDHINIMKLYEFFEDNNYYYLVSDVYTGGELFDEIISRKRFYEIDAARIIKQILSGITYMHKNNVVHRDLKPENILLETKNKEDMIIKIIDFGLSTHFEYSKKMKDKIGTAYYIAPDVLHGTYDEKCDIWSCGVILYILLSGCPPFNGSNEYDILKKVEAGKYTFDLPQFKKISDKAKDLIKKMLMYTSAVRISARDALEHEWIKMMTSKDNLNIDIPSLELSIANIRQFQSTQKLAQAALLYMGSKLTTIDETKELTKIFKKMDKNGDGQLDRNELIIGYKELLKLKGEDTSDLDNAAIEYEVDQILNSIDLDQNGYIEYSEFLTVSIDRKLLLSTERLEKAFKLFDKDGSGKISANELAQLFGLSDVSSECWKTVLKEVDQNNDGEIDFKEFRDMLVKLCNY

Row | Compound | EC50 [1] [nM] | GI50 [2] [nM] | GI50 [3] [nM] | IC50 (recombinant PfCDPK4) [nM] | also measured
1 | CCOc1ccc2cc(-c3nn(CC4CNC4)c4ncnc(N)c34)ccc2c1 [17g, 1-(azetidin-3-ylmethyl)-3-(6-ethoxynaphthalen-2-yl)-1H-pyrazolo[3,4-d]pyrimidin-4-amine] |  |  |  |  | selectivity for PfCDPK4 over Src (Src kinase): greater than 1300 fold
2 | CCOc1ccc2cc(-c3nn(CC(C)C)c4ncnc(N)c34)ccc2c1 [17q, 3-(6-ethoxynaphthalen-2-yl)-1-isobutyl-1H-pyrazolo[3,4-d]pyrimidin-4-amine] | < 40 | > 30000 | > 30000 | 14 | IC50 (Abl tyrosine kinase): 2700 nM; fold more potent against PfCDPK4 than i-Pr analog 17a (recombinant PfCDPK4; relative to 17a): more than 30 fold
3 | CCOc1ccc2cc(-c3nn(C(C)C)c4ncnc(N)c34)ccc2n1 [30a, 3-(2-ethoxyquinolin-6-yl)-1-isopropyl-1H-pyrazolo[3,4-d]pyrimidin-4-amine] |  |  |  | < 20 | fold more potent against PfCDPK4 than PfCDPK1 (recombinant PfCDPK4): > 5 fold
4 | CCOc1ccc2cc(-c3nn(CC(C)(C)CO)c4ncnc(N)c34)ccc2n1 [30u, 3-(4-amino-3-(2-ethoxyquinolin-6-yl)-1H-pyrazolo[3,4-d]pyrimidin-1-yl)-2,2-dimethylpropan-1-ol] | < 40 | > 30000 | > 30000 | 4 | IC50 (Abl tyrosine kinase): > 10000 nM
5 | CCOc1ccc2cc(-c3nn(C(C)C)c4ncnc(N)c34)cc(C)c2n1 [31a, 3-(2-ethoxy-8-methylquinolin-6-yl)-1-isopropyl-1H-pyrazolo[3,4-d]pyrimidin-4-amine] |  |  |  |  | fold more potent against PfCDPK4 than PfCDPK1 (recombinant PfCDPK4): > 5 fold
6 | CC(C)n1nc(-c2ccc3nc(OCc4ccccc4)ccc3c2)c2c(N)ncnc21 [33a, 3-(2-(benzyloxy)quinolin-6-yl)-1-isopropyl-1H-pyrazolo[3,4-d]pyrimidin-4-amine] |  |  |  |  | fold more potent against PfCDPK1 than PfCDPK4 (PfCDPK1): > 3 fold
7 | Nc1ncnc2c1c(-c1ccc3cc(OC4CC4)ccc3c1)nn2CC1CCNCC1 [37j, 3-(6-cyclopropoxynaphthalen-2-yl)-1-(piperidin-4-ylmethyl)-1H-pyrazolo[3,4-d]pyrimidin-4-amine] | < 40 | > 30000 | > 30000 | 2 | 
